Assays:
[1] = biological target: T1, human kappa opioid receptor (Homo sapiens, UniProt P41145); assay: Binding assay for opioid receptor transfected cell membrane in 96-well format (filtration), kappa opioid receptor; settings: HEK293S KOR cell membranes, radioligand 125I-(D-Pro10)-Dynorphin A (1-11), control inhibitor
T1 construct: expressed in transfected cells; host or cells: HEK293S KOR cells (membrane preparations)
Excerpt: (§1) Compounds of the invention, prepared using the general methods described above, may be tested for their ability to bind to the human kappa opioid receptor using standard procedures well known to those skilled in the art.
Binding Assay for Opioid Receptor Transfected Cell Membrane in 96-Well Format
Principle: The procedures describe how to perform and interpret receptor binding experiments designed to determine the affinities of new compounds for μ, δ and κ receptors. The total and nonspecific binding are determined in the absence and presence of selective opioid receptor radiolabeled ligand.
Procedure for Kappa Opioid Receptor:
The total and non-specific binding are determined in absence and presence of 1 μM of Asimadoline and added with the multichannel pipett in respectively well of the 96 well plate (see table 1).
The radioligand 125I-(D-pro)-Dynorphin A (1-1 1) is added containing 30 000-50 000 CPM per well.
Membranes are thawed at room temperature and diluted in assay buffer to the appropriate amount of protein, homogenized 5-10 times in glas/glas, and added to the 96 well plate.
Vortex the plate 1 minute, incubate at room temperature for 60-75 minutes, vortex 1 minute and the reaction was terminated by rapid filtration (Micro96 Harvester, Skatron Instruments, Norway) to separate bound from free ligand. […]

[2] = biological target: T1, human kappa opioid receptor; assay: SPA binding assay for kappa-opioid receptor transfected cell membrane in 96-well format; settings: HEK293S KOR cell membranes, radioligand 125I-(D-Pro10)-Dynorphin A (1-11), control inhibitor
Excerpt: as §1
SPA Binding Assay for Kappa-Opioid Receptor Transfected Cell Membrane in 96-Well Format
Principle: Membranes containing the kappa opioid receptor are coupled to SPA beads, the ability of tested compounds to dislocate a radio ligand the protein agonist Dynorphin. (^125I-(D-Pro^10)-Dynorphin A (1-11)) are determined. Only radioaktivity in close proximity to the beads, that is bound to membranes attached to beads, will be measured.
Procedure: The total and non-specific binding are determined in absence and presence of 0.5 μM of Dynorphin, radioligand is added containing 15 000-20 000 CPM per well.
The membrane and SPA beads precouples over night (18-22 hours) in assay buffer at room temperature on a shaking platform, with rotary movement. The mixture of membrane and beads are pipetted together with the assay-buffer, agents and the radioligand into a 96-well microtiterplate.
The plate is incubated for 1 hours at room temperature, and counted in a WALLAC TRILUX MicroBeta.
Percentage inhibition is calculated for each well from the two standards, 0% and 100% inhibition.
The binding buffer, 50 mM Tris, 3 mM MgCl2, stored at +4° C. […]

T1 sequence (P41145 whole entry): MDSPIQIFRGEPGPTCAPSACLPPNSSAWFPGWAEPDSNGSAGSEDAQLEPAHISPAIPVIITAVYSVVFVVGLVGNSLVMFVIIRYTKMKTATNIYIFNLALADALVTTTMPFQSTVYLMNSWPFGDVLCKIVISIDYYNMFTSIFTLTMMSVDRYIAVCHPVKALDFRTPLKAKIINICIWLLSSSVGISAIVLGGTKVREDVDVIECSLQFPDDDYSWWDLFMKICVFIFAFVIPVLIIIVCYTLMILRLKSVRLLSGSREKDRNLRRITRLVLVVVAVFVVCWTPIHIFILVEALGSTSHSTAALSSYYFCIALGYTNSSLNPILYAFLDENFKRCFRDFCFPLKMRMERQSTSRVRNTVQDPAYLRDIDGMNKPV

With `CN(C(=O)C(c1ccccc1)c1ccccc1)[C@H](CN1CC[C@H](O)C1)c1ccccc1` [Asimadoline] the IC50 [1] was 4 to 10 nM and the IC50 [2] was ~4 nM.
